For the assay, the target named is T1, human bradykinin B2 receptor (hB2R) (Homo sapiens, UniProt P30411).
T1 sequence (P30411 1-391): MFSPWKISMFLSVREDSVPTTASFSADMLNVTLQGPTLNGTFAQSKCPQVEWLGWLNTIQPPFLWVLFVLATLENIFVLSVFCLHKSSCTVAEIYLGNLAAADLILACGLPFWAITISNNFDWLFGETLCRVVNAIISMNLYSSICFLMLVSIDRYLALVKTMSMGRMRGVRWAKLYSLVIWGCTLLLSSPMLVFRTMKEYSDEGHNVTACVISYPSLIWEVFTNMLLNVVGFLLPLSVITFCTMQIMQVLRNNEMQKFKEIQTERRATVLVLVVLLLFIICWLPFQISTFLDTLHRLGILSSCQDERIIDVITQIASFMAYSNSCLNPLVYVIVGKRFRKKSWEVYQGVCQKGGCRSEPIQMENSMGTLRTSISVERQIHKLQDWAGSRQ
Kind of assay: cell-based human bradykinin B2 receptor calcium mobilization (hB2R-CaM) assay. Conditions: antagonistic activity; HTS041C cells; bradykinin at EC80; 25 min preincubation at 37° C.; read-out: IC50-value towards human bradykinin B2 receptor (hB2R). The text has this:
The following cell-based human bradykinin B2 receptor calcium mobilization (hB2R-CaM) assay was used to determine the antagonistic activity of compounds selected from the example compounds Nos. 1 to 13 towards human bradykinin B2 receptor (hB2R). The assay is defined herein as a standard in vitro B2 receptor activity assay, which can be used to determine IC50 values of the compounds according to the present invention, e. g. the compounds shown in Examples 1-4.
The antagonistic activity of compounds according to the present invention was investigated with the hB2R-CaM assay using the B2 Bradykinin Receptor Stable Cell Line HTS041C (Eurofins, St. Charles MO) and the FLIPR Calcium 6 Assay Kit (Molecular Devices, Wokingham, UK) according to the instructions of the providers. CaM assay measurements were performed with a Flexstation 3 System (Molecular Devices) which allows the precise addition of compounds (B2R antagonists) and bradykinin (B2R agonist) to the cells and adjacent continuous recording of the time-dependent CaM assay signals.
HTS041C cells were cultured in high glucose DMEM cell culture medium (Lonza) supplemented with 10% heat-inactivated FBS (PAN Biotech), 10 mM HEPES, Penicillin/Streptomycin (200 U/mL, 200 μg/mL), 1× non-essential amino acids (Lonza), and 250 μg/mL G418 (Invivogen) in cell incubator at 37° C. in a 5% CO2 atmosphere. One day before the CaM assay experiments cells were seeded in 200 μL DMEM cell culture medium with reduced FBS (5%) and without G418 on clear bottom black 96 well plates (ThermoFisher #165305). Cell starvation was carried out by incubation (37° C., 5% CO2) of 70.000 cells/well for 24 h to 28 h. Immediately prior calcium dye-loading the medium was carefully aspirated and cells were washed with Hank's balanced salt solution (HBSS, Gibco) containing Ca^2+, Mg^2+ and 20 mM HEPES, adjusted to pH 7.4 (HBSS+).
For calcium dye-loading one FLIPR 6 assay aliquot was dissolved in 20 mL HBSS+. 150 μL of the dye loading solution was added to cell plate and incubated for 120 min at 37° C. and 5% CO2. After dye loading the cell plate was immediately transferred to the pre-warmed (37° C.) Flexstation 3 System for CaM assaying.
Freshly prepared compound (B2 receptor antagonists) dilution series (8 pt, n=2) and bradykinin (B2 receptor agonist) solution in non-binding plates (Costar) were transferred to the Flexstation System (source plate) shortly before starting the experiment. Bradykinin was added in EC80 concentration determined in n>3 preliminary experiments with 8 pt concentration response curves (n=8)). CaM assay was executed by Flexstation 3 System starting with recording of calcium-sensitive dye fluorescence in bottom-read Flex modus with ex/em=485 nm/525 nm, cut off(em)=515 nm After 20 s, 50 μL of 4-fold concentrated compound dilutions were added to the cells resulting in a final DMSO (Sigma) concentration of 0.1% in the cell plate. CaM signals were monitored for 80 s after additions for detection of potential agonistic activities. Prior to bradykinin stimulus compound- and vehicle-treated cells were incubated for 25 min at 37° C. within the Flexstation System. Then 50 μL of a 5-fold concentrated bradykinin solution (HBSS+, 0.1% DMSO) was added to trigger CaM signals (Read out: Max-Min values) which were measured for 80 s post bradykinin stimulus.
IC50 determinations were performed by 4 parameter logistic model curve fitting of the 8 pt (n=2) compound concentration response curves using XLFIT (IDBS) software.

For the compound `Cc1cc(-n2cc(F)cn2)c2cccc(OCc3c(Cl)cc(F)cc3[C@@H]3COCCN3C(=O)[C@@H](C)O)c2n1` [compound 6], the half-maximal inhibitory concentration (IC50) is 26 to 500 nM.

As to `CC1=N[C@H](c2cc(F)cc(Cl)c2COc2cccc3c(-n4cc(F)cn4)cc(C)nc23)CO1` [Compound No. 3, (R)-4-(3-chloro-5-fluoro-2-((4-(4-fluoro-1H-pyrazol-1-yl)-2-methylquinolin-8-yloxy)methyl)phenyl)-2-methyl-4,5-dihydrooxazole], the IC50 lay in the range of 501 to 5000 nM.

Take `Cc1cc(-c2ncnn2C)c2cccc(OCc3c(Cl)cc(F)cc3[C@@H]3COCCN3C(=O)C(C)(C)O)c2n1` [compound 9]: the IC50 lay within 26 to 500 nM.

Take `Cc1cc(-n2cc(F)cn2)c2cccc(OCc3c(Cl)cc(F)cc3[C@@H]3COCCN3C(=O)C(C)(C)O)c2n1` [compound 7]: the IC50 fell in the range of 26 to 500 nM.

As to `Cc1cc(-c2ncnn2C)c2cccc(OCc3c(Cl)cc(F)cc3[C@@H]3COCCN3)c2n1` [compound 13], the IC50 was in the range of 26 to 500 nM. Next, `Cc1cc(-n2cc(F)cn2)c2cccc(OCc3c(Cl)cc(F)cc3[C@@H]3COCCN3C(=O)c3cnco3)c2n1` [compound 8]: 26 to 500 nM. Turning to `Cc1cc(-c2ncnn2C)c2cccc(OCc3c(Cl)cc(F)cc3[C@@H]3COCCN3C(=O)[C@H](C)O)c2n1` [compound 10], the IC50 is at most 25 nM.

As to `Cc1cc(-c2ncnn2C)c2cccc(OCc3c(Cl)cc(F)cc3[C@@H]3COCCN3C(=O)COC(F)F)c2n1` [Compound No. 2, (R)-1-(3-(3-chloro-5-fluoro-2-((2-methyl-4-(1-methyl-1H-1,2,4-triazol-5-yl)quinolin-8-yloxy)methyl)phenyl)morpholino)-2-(difluoromethoxy)ethanone], the IC50 is at most 25 nM.

Turning to `Cc1cc(-c2ncnn2C)c2cccc(OCc3c(Cl)cc(F)cc3[C@@H]3COCC(=O)N3)c2n1` [compound 12], the IC50 lay within 26 to 500 nM. Next, `[2H][C@@]1(c2cc(F)cc(Cl)c2COc2cccc3c(-n4cc(F)cn4)cc(C)nc23)COCCN1C(=O)COC(F)F` [Compound No. 1A, 1-[(3R)-3-[3-chloro-5-fluoro-2-({[4-(4-fluoropyrazol-1-yl)-2-methylquinolin-8-yl]oxy}methyl)phenyl](3-deutero)morpholin-4-yl]-2-(difluoromethoxy)ethanone]: at most 25 nM; `Cc1cc(-n2cc(F)cn2)c2cccc(OCc3c(Cl)cc(F)cc3[C@@H]3COCCN3C(=O)COC(F)F)c2n1` [Compound No. 1, (R)-1-(3-(3-chloro-5-fluoro-2-((4-(4-fluoro-1H-pyrazol-1-yl)-2-methylquinolin-8-yloxy)methyl)phenyl)morpholino)-2-(difluoromethoxy)ethanone]: at most 25 nM; `Cc1cc(-c2ncnn2C)c2cccc(OCc3c(Cl)cc(F)cc3[C@@H]3COCCN3C(=O)c3cnco3)c2n1` [compound 11]: at most 25 nM. Next, `Cc1cc(-n2cc(F)cn2)c2cccc(OCc3c(Cl)cc(F)cc3[C@@H]3COCCN3)c2n1` [compound 5]: 501 to 5000 nM; `Cc1cc(-n2cc(F)cn2)c2cccc(OCc3c(Cl)cc(F)cc3[C@@H]3COCC(=O)N3)c2n1` [compound 4]: 501 to 5000 nM.

The term IC50 denotes the concentration that gives 50% inhibition.

For the origin of these results see patent publication US12391681B2, “(R)-3-(3-chloro-5-fluoro-2-((4-(1h-pyrazol-1-yl)-2-methylquinolin-8-yloxy)methyl)phenyl)morpholine derivatives and related compounds as bradykinin (BK) B2 receptor antagonist for treating skin diseases” (Pharvaris GmbH, priority 2019, dated 2025).
